Results from publication PMC12304293, “Combatting virulent gut bacteria by inhibiting the biosynthesis of a two-component lanthipeptide toxin” (Nature Communications, 2025).
Like-named read-outs stand apart in the source and are kept apart here. Non-standard residues stand in square brackets, D forms with d. Residues, ends and D or L forms follow the SMILES beside them. *: point of attachment. boroGlu = O=C(O)CC[C@H](N*)B(O)O; Abu = CC[C@H](N)C(=O)O

Tests used:
His6-CylA-27-412 [1] = target: T1, His6-CylA-27-412 (Enterococcus faecalis, UniProt A0A2P6AWB8); assay: Analysis of CylA inhibition by LCMS (cleavage of mCylLL and mCylLS); type: biochemical; conditions: 1 µM inhibitor; enzyme 4 nM; substrate 10 µM; 30 min, room temperature
T1 sequence (A0A2P6AWB8 27-412): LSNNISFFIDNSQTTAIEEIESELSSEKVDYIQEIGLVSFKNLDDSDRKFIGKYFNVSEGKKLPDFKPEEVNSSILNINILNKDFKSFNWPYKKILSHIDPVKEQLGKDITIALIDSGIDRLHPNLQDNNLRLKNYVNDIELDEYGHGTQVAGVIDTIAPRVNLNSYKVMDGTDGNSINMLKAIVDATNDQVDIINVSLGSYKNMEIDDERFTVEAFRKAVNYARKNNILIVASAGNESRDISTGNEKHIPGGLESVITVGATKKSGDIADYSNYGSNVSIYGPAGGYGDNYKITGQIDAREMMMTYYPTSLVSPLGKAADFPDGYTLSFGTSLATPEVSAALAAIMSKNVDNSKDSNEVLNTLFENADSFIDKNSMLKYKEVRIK
Protocol: We expressed CylA in Escherichia coli with an N-terminal His6-tag and without the secretion signal that is present in WT CylA. […] (4 nM) gave partial conversion to the mature core peptide after 30 min at room temperature.
A Peak highlighted in green is the LP and peak highlighted in orange is CylLL”. B Peak highlighted in blue is the LP and peak highlighted in violet is CylLS”. Longer incubation times result in near-complete cleavage of the substrates. Source data are provided as a Source Data file.
His6-CylA-27-412 was added to PBS (pH = 7.4) to achieve a total enzyme concentration of 4 nM then 1 was added to a concentration 1 μM. […] Reactions were allowed to stand for 30 min before quenching through adjustment to 1% formic acid. Reactions were analyzed directly by LCMS using a Jupiter 5 µm C4 300 Å, 50 × 2 mm LC column. The following gradient was used: 98% H2O + 0.1% FA (solvent A)/2% MeCN + 0.1% FA (solvent B) for 2 min then 98:2 to 2:98 solvent A:solvent B over 10 min. Extracted ion chromatograms (EIC) for each species were merged into a single trace. […] CylA was also previously reported to prefer the modified peptides over the linear peptides.

His6-CylA-27-412 [2] = target: T1, His6-CylA-27-412; assay: Co-operative pore formation assay (pyranine liposomes) measuring CylA-catalyzed cytolysin maturation; type: biochemical
Text: Cytolysin causes hemolysis and lyses a variety of eukaryotic cells[36],[37]. Additionally, CylA aggregates and is thought to associate primarily with the membrane of the producing cell[52],[53]. To mimic the maturation of cytolysin in vitro, an enzyme assay was designed that linked toxin production to the lysis of fluorescently labeled liposomes. […] In this way, pyranine fluorescence was correlated to toxin activation allowing for the determination of EC50 values (Fig. 4B, C).
Fig. 4 In vitro pore formation assay for determining inhibitor effectiveness. A A schematic of the assay showing how pore formation is used as an indicator of toxin maturation. […] Pore formation dissipates a pH gradient between the interior of the liposome and the surrounding buffer increasing pyranine fluorescence. […] The data points from two replicates are shown (n = 2). Source data are provided as a Source Data file.
Pyranine encapsulated liposomes were prepared as described elsewhere. […] To a well in a black 96-well plate (200 µL) was added 90 µL high pH buffer (5 mM MES, 5 mM Tricine, 5 mM NaCl, pH 7.4) containing CylA (4 nM final concentration). After adding inhibitor, the mixture was incubated at room temperature for 10 min then freshly prepared (no more than 2 days old) pyranine encapsulated DOPC liposomes were added such that the total DOPC concentration was 80 µM. […] The resulting curves were max-min normalized yielding the fraction of permeabilized liposomes. […] This experiment was performed in duplicate or triplicate for each inhibitor at each concentration.
Supplementary Figure 3. Measuring CylA-cat alyzed cytolysin maturation using a pyranine pore formation assay. Plots on the left side show the normalized pyranine emission intensity monitored […]
was added 30 min later. Each trace w as collected using a differ ent total co ncentration of inhibitor as indicated in the l egend. Traces are from a single representative tri al. On the right side, the fraction of liposomes permeabilized after 30 min was plotted as a function of total inhibitor concentration. The data were fit to a dose-response function using Origin 7 and the fit curve is depicted by the red line. Errors bars represent the standard of deviation bet ween two replicates (n = 2). Source d ata are pro vided as a Source Data file. […]

HeLa cells = type: cell-based
Protocol: Cell culturing and maintenance was performed in Dulbecco’s Modified Eagle Medium (DMEM, Gibco) supplemented with 10% heat inactivated fetal bovine serum (FBS, Gibco). Cells were routinely checked for mycoplasm using mycoplasm specific primers. HeLa cells (ATCC) were seeded in 96 well plates (Nunc) using a seeding density of 5000 cells/well and allowed to adhere for 16 h at 37 °C, 5% CO2. […] Post-treatment, plates were incubated for 72 h at 37 °C, 5% CO2. Subsequently, the growth medium was removed, and the cells were washed once with pre-warmed phosphate buffered saline (PBS; pH = 7.2). Next, 50 µL of DMEM-FBS media containing 1 mg/mL of 3-(4,5-dimethylthiazol-2-yl)-2,5-diphenyltetrazolium bromide (MTT) was added to the cells and the cells were incubated in the dark at 37 °C, 5% CO2 for 4 h. During this time, live cells reduced yellow tetrazolium salts to purple formazan crystals through NAD(P)H-dependent oxidoreductase activity. After 4 h, the medium was removed carefully and the insoluble formazan crystals were solubilized by incubating with 100 µL of dimethyl sulfoxide (DMSO) in the dark for 1 h with intermittent swirling. Finally, absorbance was recorded at 575 nm (Supplementary Fig. 18). The percentage of cells that survived over the course of the assay was calculated using Eq. 1.1 %survival=100%−Absorbanceoftreatedwell−AvgAbsorbanceofnegativecontrolwells/AvgAbsorbanceofpositivecontrol−AvgAbsorbanceofnegativecontrol*100% […]
Supplementary Figure 18.Cytotoxicity assay of boronic acid inhibitors 2 , 3, 5- 9 against HeLa […]
µM or less as determined by an MTT-based assay. Puromycin was used as positive control, while deionized sterile w ater w as used as a n egative con trol. Source data are prov ided as a Source Dat a […]

## CC(=O)NCC(=O)N[C@@H](CC(=O)O)C(=O)N[C@H](C(=O)N[C@@H](CCC(N)=O)C(=O)N[C@@H](C)C(=O)N[C@@H](CCC(=O)O)B(O)O)C(C)C [Compound 1] (Ac-GDVQA-boroGlu)
His6-CylA-27-412 [1]
  His6-CylA-27-412-catalyzed cleavage of mCylLS and mCylLL: completely blocked

## CC(=O)N[C@@H](CO)C(=O)N[C@@H](CC(=O)O)C(=O)N[C@H](C(=O)N[C@@H](CCC(N)=O)C(=O)N[C@@H](C)C(=O)N[C@@H](CCC(=O)O)B(O)O)C(C)C [Compound 8] (Ac-SDVQA-boroGlu)
His6-CylA-27-412 [2]
  EC50: 40 ± 3 nM

## CC[C@H](NC(=O)[C@H](CCC(N)=O)NC(=O)[C@@H](NC(=O)[C@H](CC(=O)O)NC(=O)CNC(C)=O)C(C)C)C(=O)N[C@@H](CCC(=O)O)B(O)O [Compound 6] (Ac-GDVQ[Abu]-boroGlu)
His6-CylA-27-412 [2]
  EC50: 70 ± 11 nM
His6-CylA-27-412 [2]; pore formation assay
  increase in EC50 relative to 1: ~ 2 fold

## COc1ccc(C[C@H](N)C(=O)N[C@H]2[C@@H](O)[C@H](n3cnc4c(N(C)C)ncnc43)O[C@@H]2CO)cc1 [puromycin]
HeLa cells; additive concentration 1.6 (unit not given)
  % survival: 5.522%
HeLa cells; additive concentration 3.1 (unit not given)
  % survival: 4.2%
HeLa cells; additive concentration 6.3 (unit not given)
  % survival: 4.093%
HeLa cells; additive concentration 13 (unit not given)
  % survival: 3.889%
HeLa cells; additive concentration 25 (unit not given)
  % survival: 3.867%
HeLa cells; additive concentration 50 (unit not given)
  % survival: 3.889%
HeLa cells; additive concentration 100 (unit not given)
  % survival: 3.867%
